Source: patent US9040712B2, “Thiadiazole analogs thereof and methods for treating SMN-deficiency-related-conditions” (NOVARTIS AG, priority 2013, dated 2015)
Counter-ions that a name gives are not always drawn.

Each compound was assayed on SMN protein (assay: cellular SMN ELISA (SMN protein elevation)). Details: myoblast cell line derived from SMNdelta7 mouse model; 24 hours compound treatment; concentration range 100 pM-10 uM.
Format: cell-based
In short: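 Myoblasts derived from the SMNdelta7 mouse model, 3000 cells/well, treated with compound (100 pM–10 uM) for 24 h, then lysed in modified RIPA buffer. SMN protein quantified by sandwich ELISA (anti-SMN mAb capture, rabbit polyclonal detection, HRP/TMB, 450 nm). Results given as fold activation over DMSO and EC50.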

Row | SMILES | EC50 [nM] | SMN Activity Fold (fold activation over DMSO control)
1 | COc1cc(-c2ccc(O)nc2)ccc1-c1nnc(N(C)C2CC(C)(C)NC(C)(C)C2)s1 [Example 9, 5-(3-Methoxy-4-(5-(methyl(2,2,6,6-tetramethyl-piperidin-4-yl)amino)-1,3,4-thiadiazol-2-yl)phenyl)pyridin-2-ol] | 784 | 2.46 fold
2 | COc1cc(-c2cnn(C)c2)ccc1-c1nnc(N(C)C2CC(C)(C)NC(C)(C)C2)s1 [Example 6, 5-(2-Methoxy-4-(1-methyl-1H-pyrazol-4-yl)phenyl)-N-methyl-N-(2,2,6,6-tetramethylpiperidin-4-yl)-1,3,4-thiadiazol-2-amine] | 44 | 2.49 fold
3 | CN(c1nnc(-c2cc3ccc(O)cc3cc2O)s1)C1CC(C)(C)NC(C)(C)C1 [Example 20, 3-(5-(Methyl(2,2,6,6-tetramethylpiperidin-4-yl)amino)-1,3,4-thiadiazol-2-yl)naphthalene-2,7-diol] | 48 | 2.63 fold
4 | CN(c1nnc(-c2ccc(-n3cccn3)cc2O)s1)C1CC(C)(C)NC(C)(C)C1 [Example 87, 2-(5-(methyl(2,2,6,6-tetramethylpiperidin-4-yl)amino)-1,3,4-thiadiazol-2-yl)-5-(1H-pyrazol-1-yl)phenol] | 171 | 2.76 fold
5 | CN(c1nnc(-c2ccc(-c3ccn(C)c(=O)c3)cc2O)s1)C1CC(C)(C)NC(C)(C)C1 [Example 18, 4-(3-Hydroxy-4-(5-(methyl(2,2,6,6-tetramethyl-piperidin-4-yl)amino)-1,3,4-thiadiazol-2-yl)phenyl)-1-methylpyridin-2(1H)-one] | 61 | 3.36 fold
6 | COc1cc(-c2sc(C)nc2C)ccc1-c1nnc(N(C)C2CC(C)(C)NC(C)(C)C2)s1 [Example 74, 5-(4-(2,4-dimethylthiazol-5-yl)-2-methoxyphenyl)-N-methyl-N-(2,2,6,6-tetramethylpiperidin-4-yl)-1,3,4-thiadiazol-2-amine] | 85 | 2.64 fold
7 | CN(c1nnc(-c2ccc(-c3cnn(C)c3)cn2)s1)C1CC(C)(C)NC(C)(C)C1 [Example 42, N-methyl-5-(5-(1-methyl-1H-pyrazol-4-yl)pyridin-2-yl)-N-(2,2,6,6-tetramethylpiperidin-4-yl)-1,3,4-thiadiazol-2-amine. Hydrochloride salt] | 675 | 2.32 fold
8 | COc1cc(-c2cn[nH]c2)c(F)c(F)c1-c1nnc(N(C)C2CC(C)(C)NC(C)(C)C2)s1 [Example 63, 5-(2,3-difluoro-6-methoxy-4-(1H-pyrazol-4-yl)phenyl)-N-methyl-N-(2,2,6,6-tetramethyl-piperidin-4-yl)-1,3,4-thiadiazol-2-amine] | 47 | 3.13 fold
9 | COc1cc(-c2ccn(C)c(=O)c2)ccc1-c1nnc(OC2CC(C)(C)NC(C)(C)C2)s1 [Example 38, 4-(3-methoxy-4-(5-((2,2,6,6-tetramethyl-piperidin-4-yl)oxy)-1,3,4-thiadiazol-2-yl)phenyl)-1-methylpyridin-2(1H)-one] | 1520 | 2.12 fold
10 | COc1cc(-c2c(C)n[nH]c2C)ccc1-c1nnc(N(C)C2CC(C)(C)NC(C)(C)C2)s1 [Example 13, 5-(4-(3,5-Dimethyl-1H-pyrazol-4-yl)-2-methoxy-phenyl)-N-methyl-N-(2,2,6,6-tetramethylpiperidin-4-yl)-1,3,4-thiadiazol-2-amine] | – | inactive
11 | Oc1cc(-n2cccn2)ccc1-c1nnc(N2CCNCC2)s1 [Example 30, 2-(5-(piperazin-1-yl)-1,3,4-thiadiazol-2-yl)-5-(1H-pyrazol-1-yl)phenol] | 6560 | 1.98 fold
